From PMC4111509 (PLoS ONE, 2014) come the findings set out here.

What all share (assay): HPLC-UV product detection
Assay type in all cases: biochemical
What all share (conditions): AdoMet co-substrate

One experiment deals with T1, NpN4OMT2 (Narcissus aff. pseudonarcissus MK-2014, UniProt A0A077EW86).
T1 construct: gene N4OMT2; full length, N-terminal His tag (pET28a), E. coli, purified

Another experiment addresses T2, NpN4OMT4 (Narcissus aff. pseudonarcissus MK-2014, UniProt A0A077ES70).
T2 construct: gene N4OMT4; full length, N-terminal His tag (pET28a), E. coli, purified

The target in another experiment is T3, NpN4OMT5 (Narcissus aff. pseudonarcissus MK-2014, UniProt A0A077ESS0).
T3 construct: gene N4OMT5; full length, N-terminal His tag (pET28a), E. coli, purified
T3 sequence (A0A077ESS0 whole entry): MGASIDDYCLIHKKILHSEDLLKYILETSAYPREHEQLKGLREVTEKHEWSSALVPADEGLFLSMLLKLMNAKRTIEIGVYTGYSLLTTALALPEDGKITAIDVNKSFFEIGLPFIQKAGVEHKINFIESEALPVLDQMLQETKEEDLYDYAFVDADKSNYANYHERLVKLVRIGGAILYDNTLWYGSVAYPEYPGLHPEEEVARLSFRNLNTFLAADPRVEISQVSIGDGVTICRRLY

T1 sequence (A0A077EW86 whole entry): as the sequence (A0A077ESS0 whole entry) above, with C9S, I11V, K14N counted along it
T2 sequence (A0A077ES70 whole entry): as the sequence (A0A077ESS0 whole entry) above, with L67I counted along it

Consider `Oc1ccc(CCNCc2ccc(O)c(O)c2)cc1` [norbelladine], for which the HPLC-UV product detection result at NpN4OMT2, at NpN4OMT4 and on NpN4OMT5 was “enzymatic activity was confirmed for all variants using norbelladine as the substrate” each time.
